Source: patent US11459339B2, “Biaryl derivative, preparation method thereof and pharmaceutical application thereof” (Abbisko Therapeutics Co., Ltd., priority 2018, dated 2022)

How the values were obtained:
[1] = biological target: interaction between PD-1 and PD-L1 (Homo sapiens (Human), UniProt Q9NZQ7); assay: PD1-PDL1 HTRF binding activity test (Cisbio PD-1/PD-L1 binding assay kit); details: read-out: PD1-PDL1 HTRF Binding Activity IC50
Procedure: A. PD1-PDL1 HTRF Binding Activity Test
The effect of compounds and positive compounds of the examples of the present invention on the interaction between PD-1 and PD-L1 was determined by the PD-1/PD-L1 binding assay kit from Cisbio (#64ICP01PEG or 64ICP01PEH). The detailed experimental process was as follows:
1. Pre-diluted compound solution, 4 μL of Tag1-PD-L1 and 4 μL of Tag2-PD1 were added to each well of a 384-well plate;
3. After incubated for 2 hrs at room temperature or overnight at 4° C., plates were read on Envision of Pelkin Elmer; and readings at 665 nm and 620 nm were recorded, and the ratio of the two readings was taken as a reading for each well;
4. The reading of each well after compound treatment was compared with the reading of DMSO treated wells to obtain the percent inhibition of the compound; and
5. IC50 values of compounds and positive compounds of the examples of the present invention were determined by non-linear regression analysis of percent inhibition at different compound concentrations.

[2] = biological target: interaction between PD-1 and PD-L1 expressed on cell surfaces (Homo sapiens (Human), UniProt Q9NZQ7); assay: Jurkat reporter gene cellular assay (Jurkat/NF-κB-luc/PD1 cells cocultured with Raji-PD-L1 cells, OKT-3 stimulation); assay type: cell-based; details: NF-κB-luc reporter activation fold, 6 hrs; read-out: Cell Activity EC50
Chain of interaction between PD-1 and PD-L1 expressed on cell surfaces (Q9NZQ7 19-290): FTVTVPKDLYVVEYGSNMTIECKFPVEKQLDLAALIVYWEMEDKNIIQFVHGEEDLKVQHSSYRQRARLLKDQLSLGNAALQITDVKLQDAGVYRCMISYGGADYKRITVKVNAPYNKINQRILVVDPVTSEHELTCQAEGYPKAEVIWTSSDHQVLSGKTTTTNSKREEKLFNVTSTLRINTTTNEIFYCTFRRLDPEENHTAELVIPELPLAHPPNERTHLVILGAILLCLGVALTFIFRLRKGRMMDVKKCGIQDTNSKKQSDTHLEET
Procedure: B. Jurkat Reporter Gene Cellular Assay
The effect of compounds of the examples of the present invention and positive compounds on the interaction between PD-1 and PD-L1 expressed on cell surfaces, and the related influence on T cell functions, were determined by a Jurkat reporter gene cellular assay.
Briefly, the reporter gene plasmid of NF-κB-luc and the plasmid of human PD-1 were transfected into Jurkat cells to establish a stably transfected cell line capable of stably expressing both PD-1 and NF-κB-Luc reporter genes; the expression level of PD-1 on the cell surface was confirmed by flow cytometry: and the expression of the reporter gene was confirmed via the response of the reporter gene stimulated by OKT-3 and Raiji cells.
In addition, the plasmid of human PD-L1 was transfected into Raji cells to obtain a cell line capable of stably expressing PD-L1. Jurkat/NF-κB-luc/PD1 cells and Raji-PD-L1 cells were then cocultured and stimulated with OKT-3. On this basis, the compounds were added, and the enhancement of the signal pathway of T cell activation by the inhibitory effect of the compounds on the interaction between PD-1 and PD-L1 was evaluated by readings of reporter gene responses. The specific experimental process was as follows:
2. 20 μL of Raji-PD-L1 cell suspension was added to each well with 5*10^4 cells for each well, and was incubated in an incubator for 20 min;
3. 20 μL of Jurkat/NF-κb-luc/PD-1 cell suspension was added to each well with 5*10^4 cells for each well, and well mixed, and 6 hrs later, Bright-glo (Promega, E2620) was applied and plates were read on Envision;
4. the reading of each well treated with the compound was compared with the reading of each well treated with DMSO to obtain the activation fold of the compound; and
5. EC50 values of compounds and positive compounds of the examples of the present invention were determined by non-linear regression analysis of activation folds at different compound concentrations.

Chain of interaction between PD-1 and PD-L1 (Q9NZQ7 19-238): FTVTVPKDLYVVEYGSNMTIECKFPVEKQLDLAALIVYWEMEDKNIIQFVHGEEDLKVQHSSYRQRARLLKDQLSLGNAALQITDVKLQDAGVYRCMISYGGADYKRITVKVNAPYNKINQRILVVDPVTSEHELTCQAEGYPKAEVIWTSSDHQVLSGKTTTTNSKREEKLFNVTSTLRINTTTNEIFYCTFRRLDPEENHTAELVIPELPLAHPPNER

Structure (SMILES)	IC50 [1]	EC50 [2]
COc1cc(C(=O)Nc2cccc(-c3cccc(NC(=O)c4cc(OC)c(CN[C@H](CO)C(=O)O)cn4)c3C)c2C)ncc1CN[C@H](CO)C(=O)O [Example 2, (2R,2′R)-2,2′-((((((2,2′-dimethyl-[1,1′-biphenyl]-3,3′-diyl)bis (azanediyl))bis(carbonyl))bis(4-methoxypyridine-6,3-diyl))bis(methylene))bis (azanediyl))bis(3-hydroxypropanoic acid)]	0.18 nM	109 nM
Cc1c(NC(=O)c2ccc(CN[C@H](CO)C(=O)O)cn2)cccc1-c1cccc(NC(=O)c2ccc(CN[C@H](CO)C(=O)O)cn2)c1C [Example 6, (2R,2′R)-2,2′-((((((2,2′-dimethyl[1,1′-biphenyl]-3,3′-diyl)bis(azanediyl))bis(carbonyl))bis(pyridine-6,3-diyl))bis(methylene))bis(azanediyl))bis (3-hydroxypropanoic acid)]	0.79 nM	658 nM
COCCNCc1cnc(C(=O)Nc2cccc(-c3cccc(NC(=O)c4cc(C)c(CNCCOC)cn4)c3C)c2C)cc1C [Example 7, N,N′-(2,2′-dimethyl-[1,1′-biphenyl]-3,3′-diyl)bis(5-(((2-methoxyethyl)amino)methyl)-4-methylpicolinamide)]	0.096 nM	139 nM
Cc1cc(C(=O)Nc2cccc(-c3cccc(NC(=O)c4cc(C)c(CN5CCOCC5)cn4)c3C)c2C)ncc1CN1CCOCC1 [Example 9, N,N′-(2,2′-dimethyl-[1,1′-biphenyl]-3,3′-diyl)bis(4-methyl-5-(morpholinomethyl)picolinamide)]	3.8 nM	> 10000 nM
Cc1cc(C(=O)Nc2cccc(-c3cccc(NC(=O)c4cc(C)c(CNCC5(O)CC5)cn4)c3C)c2C)ncc1CNCC1(O)CC1 [Example 10, N,N′-(2,2′-dimethyl-[1,1′-biphenyl]-3,3′-diyl)bis(5-((((1-hydroxycyclopropyl)methyl)amino)methyl)-4-methylpicolinamide)]	0.28 nM	50 nM
Cc1cc(C(=O)Nc2cccc(-c3cccc(NC(=O)c4cc(C)c(CN5CC(C)(O)C5)cn4)c3C)c2C)ncc1CN1CC(C)(O)C1 [Example 11, N,N′-(2,2′-dimethyl-[1,1′-biphenyl]-3,3′-diyl)bis(5-((3-hydroxy-3-methylazetidin-1-yl)methyl)-4-methylpicolinamide)]	0.6 nM	134 nM
Cc1cc(C(=O)Nc2cccc(-c3cccc(NC(=O)c4cc(C)c(CN5CCCC5)cn4)c3C)c2C)ncc1CN1CCCC1 [Example 12, N,N′-(2,2′-dimethyl-[1,1′-biphenyl]-3,3′-diyl)bis(4-methyl-5-(pyrrolidin-1-ylmethyl)picolinamide)]	1.9 nM	594 nM
Cc1cc(C(=O)Nc2cccc(-c3cccc(NC(=O)c4cc(C)c(CN5CC[C@@H](O)C5)cn4)c3C)c2C)ncc1CN1CC[C@@H](O)C1 [Example 13, N,N′-(2,2′-dimethyl-[1,1′-biphenyl]-3,3′-diyl)bis(5-(((R)-3-hydroxypyrrolidin-1-yl)methyl)-4-methylpicolinamide)]	0.13 nM	109 nM
Cc1cc(C(=O)Nc2cccc(-c3cccc(NC(=O)c4cc(C)c(CN5CCC(F)(F)C5)cn4)c3C)c2C)ncc1CN1CCC(F)(F)C1 [Example 14, N,N′-(2,2′-dimethyl-[1,1′-biphenyl]-3,3′-diyl)bis(5-((3,3-difluoropyrrolidin-1-yl)methyl)-4-methylpicolinamide)]	227 nM	–
Cc1cc(C(=O)Nc2cccc(-c3cccc(NC(=O)c4cc(C)c(CNC5CC5)cn4)c3C)c2C)ncc1CNC1CC1 [Example 15, N,N′-(2,2′-dimethyl-[1,1′-biphenyl]-3,3′-diyl)bis(5-((cyclopropylamino)methyl)-4-methyipicolinamide)]	0.83 nM	511 nM
CC(=O)NCCNCc1cnc(C(=O)Nc2cccc(-c3cccc(NC(=O)c4cc(C)c(CNCCNC(C)=O)cn4)c3C)c2C)cc1C [Example 16, N,N′-(2,2′-dimethyl-[1,1′-biphenyl]-3,3′-diyl)bis(5-(((2-acetamidoethyl)amino)methyl)-4-methylpicolinamide)]	0.14 nM	310 nM
Cc1cc(C(=O)Nc2cccc(-c3cccc(NC(=O)c4cc(C)c(CN5CCNC(=O)C5)cn4)c3C)c2C)ncc1CN1CCNC(=O)C1 [Example 17, N,N′-(2,2′-dimethyl-[1,1′-biphenyl]-3,3′-diyl)bis(4-methyl-5-((3-oxopiperazin-1-yl)methyl)picolinamide)]	1.5 nM	> 10000 nM
Cc1cc(C(=O)Nc2cccc(-c3cccc(NC(=O)c4cc(C)c(CN[C@@H]5CCOC[C@H]5O)cn4)c3C)c2C)ncc1CN[C@@H]1CCOC[C@H]1O [Example 18, N,N′-(2,2′-dimethyl-[1,1′-biphenyl]-3,3′-diyl)bis(5-((((3S,4R)-3-hydroxytetrahydro-2H-pyran-4-yl)amino)methyl)-4-methylpicolinamide)]	0.34 nM	209 nM
Cc1cc(C(=O)Nc2cccc(-c3cccc(NC(=O)c4cc(C)c(CN[C@H]5CC[C@H](O)CC5)cn4)c3C)c2C)ncc1CN[C@H]1CC[C@H](O)CC1 [Example 19, N,N′-(2,2′-dimethyl-[1,1′-biphenyl]-3,3′-diyl)bis(5-((((1r,4r)-4-hydroxycyclohexyl)amino)methyl)-4-methylpicolinamide)]	0.15 nM	86 nM
COC(=O)[C@@H](CO)NCc1cnc(C(=O)Nc2cccc(-c3cccc(NC(=O)c4cc(C)c(CN[C@H](CO)C(=O)OC)cn4)c3C)c2C)cc1C [Example 20, dimethyl 2,2′-((((((2,2′-dimethyl-[1,1′-biphenyl]-3,3′-diyl)bis (azanediyl))bis(carbonyl))bis(4-methylpyridine-6,3-diyl))bis(methylene))bis(azanediyl))(2R,2′R)-bis(3-hydroxypropanoate)]	0.36 nM	4220 nM
Cc1cc(C(=O)Nc2cccc(-c3cccc(NC(=O)c4cc(C)c(CN[C@H](CO)C(=O)O)cn4)c3C)c2C)ncc1CN[C@H](CO)C(=O)O [Example 21, (2R,2′R)-2,2′-((((((2,2′-dimethyl-[1,1′-biphenyl]-3,3′-diyl)bis(azanediyl))bis(carbonyl))bis(4-methylpyridine-6,3-diyl))bis(methylene))bis(azanediyl)) bis(3-hydroxypropaitoic acid)]	0.66 nM	83 nM
COC(=O)[C@H](CO)NCc1cnc(C(=O)Nc2cccc(-c3cccc(NC(=O)c4cc(C)c(CN[C@@H](CO)C(=O)OC)cn4)c3C)c2C)cc1C [Example 22, dimethyl 2,2′-((((((2,2′-dimethyl-[1,1′-biphenyl]-3,3′-diyl)bis(azanediyl))bis(carbonyl))bis(4-methylpyridine-6,3-diyl))bis(methylene))bis(azanediyl)) (2S,2′S)-bis(3-hydroxypropanoate)]	0.28 nM	5170 nM
Cc1cc(C(=O)Nc2cccc(-c3cccc(NC(=O)c4cc(C)c(CN[C@@H](CO)C(=O)O)cn4)c3C)c2C)ncc1CN[C@@H](CO)C(=O)O [Example 23, (2S,2′S)-2,2′-((((((2,2′-dimethyl-[1,1′-biphenyl]3,3′-diyl)bis(azanediyl))bis(carbonyl))bis(4-methylpyridine-6,3-diyl))bis(methylene))bis(azanediyl))bis (3-hydroxypropanoic acid)]	0.31 nM	249 nM
COC(=O)CNCc1cnc(C(=O)Nc2cccc(-c3cccc(NC(=O)c4cc(C)c(CNCC(=O)OC)cn4)c3C)c2C)cc1C [Example 24, dimethyl 2,2′-((((((2,2′-dimethyl-[1,1′-biphenyl]-3,3′-diyl)bis(azanediyl))bis(carbonyl))bis(4-methylpyridine-6,3-diyl))bis (methylene))bis(azanediyl))diacetate]	3.2 nM	1050 nM
Cc1cc(C(=O)Nc2cccc(-c3cccc(NC(=O)c4cc(C)c(CNCC(=O)O)cn4)c3C)c2C)ncc1CNCC(=O)O [Example 25]	0.37 nM	124 nM
COc1cc(C(=O)Nc2cccc(-c3cccc(NC(=O)c4cc(OC)c(CN5CC6(CCO6)C5)cn4)c3C)c2C)ncc1CN1CC2(CCO2)C1 [Example 57]	0.36 nM	–
